One experiment addresses EGFR (Homo sapiens (Human), UniProt P00533). Nature of the experiment: Kinase inhibition assay (Caliper, FAM-labeled peptide substrate). In kind it is biochemical. Here is the method: (§1) 2.5 times of the kinase (VEGFR2 or EGFR or FYN) buffer solution was added to the compound diluted in equal concentration in the 384-well plate and incubated at 22-27° C. for 10 minutes, then 2.5 times of the FAM-labeled peptide substrate and ATP buffer solution were added therein and incubated at 28° C., and then the stop buffer solution was added to stop the reaction. The data was read by Caliper and the following formula was used to calculate the IC50 inhibition: Percent inhibition=(max-conversion)/(max-min)*100. Staurosporine was used as a control. In kinase inhibition assays, some of the compounds of the present invention are effective in inhibiting VEGFR2/FYN/EGFR, so they have the potential for treating or preventing cancer or central nervous system diseases (Table 1).

The next experiment addresses VEGFR2 (Homo sapiens (Human), UniProt P35968). The experiment is described as above. The format is biochemical. As for the experimental part:
as §1

Another experiment deals with SKOV3 tumor cells. Put plainly: SKOV3 tumor cell mouse subcutaneous animal model. The format is in vivo. The conditions noted are these: monotherapy, oral, twice a day, four weeks, vs control group. Here is the method: (§2) In the efficacy experiment of SKOV3 tumor cell mouse subcutaneous animal model (FIG. 1), the drug was administered on the 30th day after the tumor cells were planted and the drug administration was lasted for four weeks. […] In the efficacy experiment of the PC-9Luc tumor cell mouse intracranial animal model (FIG. 2), the drug was administered on the 10th day after the tumor cells were planted and the drug administration was lasted for three weeks. The second group of compound 1 was used as monotherapy, 10 mg/kg, oral dosing, twice a day; the third group of EGFR inhibitors (chemical name: (R)-6-[(3,3-difluoro-1-methylpiperidin-4-yl)oxy]-nitrogen-(3-ethynyl-2-fluorophenyl)-7-methoxyquinazolin-4-amine) was used as monotherapy, 3 mg/kg, oral dosing, twice a day; the fourth group of compound 1 combined with EGFR inhibitors.

The next experiment relates to PC-9Luc tumor cells. Put plainly: PC-9Luc tumor cell mouse intracranial animal model. The format is in vivo. The conditions noted are these: monotherapy, 3 mg/kg, oral, twice a day, three weeks; vs control group. Here is the method:
as §2

In a further experiment the target is FYN (Homo sapiens (Human), UniProt P06241). Put plainly: Kinase inhibition assay (Caliper, FAM-labeled peptide substrate). The format is biochemical. As for the experimental part:
as §1

Sequence of EGFR (P00533 25-1210, species assumed): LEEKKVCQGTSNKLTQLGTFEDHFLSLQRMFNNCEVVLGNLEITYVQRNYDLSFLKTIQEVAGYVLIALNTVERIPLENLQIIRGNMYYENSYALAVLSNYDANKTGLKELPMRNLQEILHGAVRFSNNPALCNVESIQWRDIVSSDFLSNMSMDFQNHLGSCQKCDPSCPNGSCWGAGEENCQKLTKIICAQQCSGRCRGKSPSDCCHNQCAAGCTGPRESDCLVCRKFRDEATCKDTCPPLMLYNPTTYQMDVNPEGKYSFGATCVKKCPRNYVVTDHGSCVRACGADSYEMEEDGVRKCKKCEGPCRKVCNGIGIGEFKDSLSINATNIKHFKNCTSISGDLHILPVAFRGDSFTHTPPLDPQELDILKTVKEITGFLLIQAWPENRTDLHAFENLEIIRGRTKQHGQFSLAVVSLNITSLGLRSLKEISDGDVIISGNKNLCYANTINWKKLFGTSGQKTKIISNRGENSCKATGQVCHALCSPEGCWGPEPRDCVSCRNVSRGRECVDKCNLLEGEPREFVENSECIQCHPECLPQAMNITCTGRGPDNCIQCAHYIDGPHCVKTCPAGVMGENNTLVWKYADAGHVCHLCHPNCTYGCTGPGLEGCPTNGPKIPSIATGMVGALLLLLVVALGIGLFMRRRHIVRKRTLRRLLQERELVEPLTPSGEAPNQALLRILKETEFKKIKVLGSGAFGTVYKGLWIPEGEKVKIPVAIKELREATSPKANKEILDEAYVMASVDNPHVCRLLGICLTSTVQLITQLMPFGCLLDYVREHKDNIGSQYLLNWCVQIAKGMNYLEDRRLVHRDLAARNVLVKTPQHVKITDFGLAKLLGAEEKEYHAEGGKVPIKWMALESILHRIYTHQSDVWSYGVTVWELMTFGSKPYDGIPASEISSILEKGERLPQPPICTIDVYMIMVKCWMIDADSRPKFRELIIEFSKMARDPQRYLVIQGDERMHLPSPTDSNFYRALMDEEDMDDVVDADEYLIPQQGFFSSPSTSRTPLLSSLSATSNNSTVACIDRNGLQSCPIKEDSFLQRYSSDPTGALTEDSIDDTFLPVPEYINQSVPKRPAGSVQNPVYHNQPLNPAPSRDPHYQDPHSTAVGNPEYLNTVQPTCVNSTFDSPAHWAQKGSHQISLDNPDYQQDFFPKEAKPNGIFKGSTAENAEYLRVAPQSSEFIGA
Sequence of VEGFR2 (P35968 20-1356): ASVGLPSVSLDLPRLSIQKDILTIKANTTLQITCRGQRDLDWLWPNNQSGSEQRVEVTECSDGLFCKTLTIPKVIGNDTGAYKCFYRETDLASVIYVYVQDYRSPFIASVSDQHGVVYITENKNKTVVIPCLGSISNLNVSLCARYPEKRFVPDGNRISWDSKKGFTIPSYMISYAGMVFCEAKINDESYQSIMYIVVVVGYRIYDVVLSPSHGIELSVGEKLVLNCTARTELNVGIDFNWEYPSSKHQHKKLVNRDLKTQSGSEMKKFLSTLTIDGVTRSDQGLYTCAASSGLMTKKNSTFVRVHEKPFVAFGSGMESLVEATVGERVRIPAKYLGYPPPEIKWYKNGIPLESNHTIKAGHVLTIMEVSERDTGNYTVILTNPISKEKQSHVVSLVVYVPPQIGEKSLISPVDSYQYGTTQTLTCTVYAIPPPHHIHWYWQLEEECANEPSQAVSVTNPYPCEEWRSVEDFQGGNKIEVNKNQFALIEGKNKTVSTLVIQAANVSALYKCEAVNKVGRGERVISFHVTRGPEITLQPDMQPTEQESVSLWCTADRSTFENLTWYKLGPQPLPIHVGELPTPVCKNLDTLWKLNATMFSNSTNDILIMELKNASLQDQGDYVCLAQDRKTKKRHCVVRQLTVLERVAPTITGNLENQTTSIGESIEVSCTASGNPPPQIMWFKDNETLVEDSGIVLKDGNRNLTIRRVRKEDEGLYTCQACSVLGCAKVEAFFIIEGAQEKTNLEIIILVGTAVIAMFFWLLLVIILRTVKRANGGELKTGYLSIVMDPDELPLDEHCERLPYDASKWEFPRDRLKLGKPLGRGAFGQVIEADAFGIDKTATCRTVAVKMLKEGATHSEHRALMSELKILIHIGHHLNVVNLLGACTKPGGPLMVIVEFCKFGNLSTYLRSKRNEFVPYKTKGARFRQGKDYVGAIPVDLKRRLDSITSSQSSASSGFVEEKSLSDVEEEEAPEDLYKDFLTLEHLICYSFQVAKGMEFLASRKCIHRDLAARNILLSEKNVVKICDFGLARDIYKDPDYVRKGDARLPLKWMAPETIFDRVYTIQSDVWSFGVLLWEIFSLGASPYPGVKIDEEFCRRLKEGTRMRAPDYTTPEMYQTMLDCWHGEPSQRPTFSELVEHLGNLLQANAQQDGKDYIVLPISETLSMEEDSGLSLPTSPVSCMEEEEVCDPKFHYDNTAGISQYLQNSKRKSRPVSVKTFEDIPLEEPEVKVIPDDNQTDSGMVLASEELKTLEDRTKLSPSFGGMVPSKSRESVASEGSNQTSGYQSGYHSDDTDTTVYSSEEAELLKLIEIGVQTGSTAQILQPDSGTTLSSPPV
Sequence of FYN (P06241 whole entry): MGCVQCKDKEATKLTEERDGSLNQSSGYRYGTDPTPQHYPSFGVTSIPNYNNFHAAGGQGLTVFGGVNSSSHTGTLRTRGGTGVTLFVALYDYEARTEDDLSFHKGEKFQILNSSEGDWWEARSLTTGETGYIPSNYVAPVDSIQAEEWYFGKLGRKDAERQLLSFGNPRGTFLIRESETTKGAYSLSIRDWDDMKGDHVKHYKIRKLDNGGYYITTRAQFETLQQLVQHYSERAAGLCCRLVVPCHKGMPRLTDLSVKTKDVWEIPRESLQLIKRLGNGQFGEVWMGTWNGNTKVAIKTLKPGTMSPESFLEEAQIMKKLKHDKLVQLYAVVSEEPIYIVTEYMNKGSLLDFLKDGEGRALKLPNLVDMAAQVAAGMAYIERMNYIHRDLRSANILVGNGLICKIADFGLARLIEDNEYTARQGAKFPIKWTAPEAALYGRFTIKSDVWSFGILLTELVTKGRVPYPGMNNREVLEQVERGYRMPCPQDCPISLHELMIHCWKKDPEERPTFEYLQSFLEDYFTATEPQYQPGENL

What is called IC50 is the concentration at which inhibition is half-maximal. Turning to `C#Cc1cccc(Nc2ncnc3cc(OC)cc(O[C@H]4CCN(C)CC4(F)F)c23)c1F` (single isomer, unassigned) [Compound 43], the IC50 on EGFR is < 10 nM.
As to `C#Cc1cccc(Nc2ncnc3cc(OC)cc(OC4CCN(C)CC4(F)F)c23)c1F` (racemic) [Compound 11, (R/S)-5-((3,3-difluoro-1-methylpiperidin-4-yl)oxy)-N-(3-ethynyl-2-fluorophenyl)-7-methoxyquinazolin-4-amine], the IC50 against EGFR is < 10 nM.
In the case of `COc1cc(O[C@@H]2CCN(C)CC2(F)F)c2c(Oc3ccc4[nH]c(C)cc4c3F)ncnc2c1` [Compound 18, (R)-5-((3,3-difluoro-1-methylpiperidin-4-yl)oxy)-4-((4-fluoro-2-methyl-1H-indole-5-yl)oxy)-7-deuterated methoxyquinazoline], on VEGFR2, the half-maximal inhibitory concentration (IC50) is < 10 nM.
For the compound `C#Cc1cccc(Nc2ncnc3cc(OC)cc(O[C@@H]4CCN(C)CC4(F)F)c23)c1F` [Compound 27, (R)-5-((3,3-difluoro-1-methylpiperidin-4-yl)oxy)-N-(3-ethynyl-2-fluorophenyl)-7-methoxyquinazolin-4-amine], the IC50 on EGFR is < 10 nM.
As to `COc1cc(OC2CCN(C)CC2(F)F)c2c(Oc3ccc4[nH]c(C)cc4c3F)ncnc2c1` (racemic) [Compound 2, (R/S)-5-((3,3-difluoro-1-methylpiperidin-4-yl)oxy)-4-((4-fluoro-2-methyl-1H-indole-5-yl)oxy)-7-deuterated methoxyquinazoline], the IC50 at VEGFR2 is < 10 nM.
Consider `COc1cc(O[C@@H]2CCN(C)CC2(F)F)c2c(Oc3cc(F)c4[nH]c(C)cc4c3F)ncnc2c1` [Compound 19, (R)-5-((3,3-difluoro-1-methylpiperidin-4-yl)oxy)-4-((4,7-difluoro-2-methyl-1H-indol-5-yl)oxy)-7-methoxyquinazoline], for which the IC50 against VEGFR2 is < 10 nM.
Turning to `COc1cc(OC2CCN(C)CC2(F)F)c2c(Oc3ccc4[nH]c(C)cc4c3F)ncnc2c1` (racemic) [Compound 1, (R/S)-5-((3,3-difluoro-1-methylpiperidin-4-yl)oxy)-4-((4-fluoro-2-methyl-1H-indole-5-yl)oxy)-7-methoxyquinazoline], the IC50 at VEGFR2 is < 10 nM. Moreover, the “inhibition of tumor growth” value in the experiment on SKOV3 tumor cells (10 mg/kg) and in the experiment on SKOV3 tumor cells (20 mg/kg) was “good inhibition of tumor growth” in each case.
As for `COc1cc(O[C@H]2CCN(C)CC2(F)F)c2c(Oc3ccc4[nH]c(C)cc4c3F)ncnc2c1` [Compound 34, (S)-5-((3,3-difluoro-1-methylpiperidin-4-yl)oxy)-4-((4-fluoro-2-methyl-1H-indole-5-yl)oxy)-7-deuterated methoxyquinazoline], the IC50 at VEGFR2 was < 10 nM.
Turning to `COc1cc(O[C@H]2CCN(C)CC2(F)F)c2c(Oc3cc(F)c4[nH]c(C)cc4c3F)ncnc2c1` [Compound 35, (S)-5-((3,3-difluoro-1-methylpiperidin-4-yl)oxy)-4-((4,7-difluoro-2-methyl-1H-indol-5-yl)oxy)-7-methoxyquinazoline], the IC50 against VEGFR2 is < 10 nM.
In the case of `COc1cc(O[C@H]2CCN(C)CC2(F)F)c2c(Oc3ccc4[nH]c(C)cc4c3F)ncnc2c1` [Compound 33, (S)-5-((3,3-difluoro-1-methylpiperidin-4-yl)oxy)-4-((4-fluoro-2-methyl-1H-indole-5-yl)oxy)-7-methoxyquinazoline], the IC50 against VEGFR2 is < 10 nM.
Consider `C#Cc1c(F)ccc(Nc2ncnc3cc(OC)cc(O[C@@H]4CCN(C)CC4(F)F)c23)c1F` [Compound 32, (R)-5-((3,3-difluoro-1-methylpiperidin-4-yl)oxy)-N-(3-ethynyl-2,4-difluorophenyl)-7-methoxyquinazolin-4-amine], for which the IC50 against EGFR was < 10 nM.
For `COc1cc(OC2CCN(C)CC2(F)F)c2c(Oc3cc(F)c4[nH]c(C)cc4c3F)ncnc2c1` (racemic) [Compound 3, (R/S)-5-((3,3-difluoro-1-methylpiperidin-4-yl)oxy)-4-((4,7-difluoro-2-methyl-1H-indol-5-yl)oxy)-7-methoxyquinazoline], the IC50 against VEGFR2 was < 10 nM.
Take `C#Cc1cccc(Nc2ncnc3cc(OC)c(O[C@@H]4CCN(C)CC4(F)F)cc23)c1F` [EGFR inhibitor, (R)-6-[(3,3-difluoro-1-methylpiperidin-4-yl)oxy]-nitrogen-(3-ethynyl-2-fluorophenyl)-7-methoxyquinazolin-4-amine]: in the experiment with PC-9Luc tumor cells, the “inhibition of intracranial tumor growth” value is on record as “good inhibition on intracranial tumor growth”.
On to `C#Cc1c(F)ccc(Nc2ncnc3cc(OC)cc(O[C@H]4CCN(C)CC4(F)F)c23)c1F` [Compound 48, (S)-5-((3,3-difluoro-1-methylpiperidin-4-yl)oxy)-N-(3-ethynyl-2,4-difluorophenyl)-7-methoxyquinazolin-4-amine], for which the IC50 against EGFR was < 10 nM.
Turning to `COc1cc(O[C@H]2CCN(C)CC2(F)F)c2c(Nc3c(Cl)ccc4c3OCO4)ncnc2c1` [Compound 44, (S)—N-(5-chlorobenzo[d] [1,3]dioxolcyclopenten-4-yl)-5-((3,3-difluoro-1-methylpiperidin-4-yl)oxy)-7-deuterated methoxyquinazolin-4-amine], at FYN, the IC50 was < 100 nM.
Regarding `COc1cc(OC2CCN(C)CC2(F)F)c2c(Nc3c(F)ccc4c3OCO4)ncnc2c1` (racemic) [Compound 7, (R/S)—N-(5-fluorobenzo[d][1,3]dioxolcyclopenten-4-yl)-5-((3,3-difluoro-1-methylpiperidin-4-yl)oxy)-7-deuterated methoxyquinazolin-4-amine], the IC50 against FYN was < 100 nM.
In the case of `C#Cc1c(F)ccc(Nc2ncnc3cc(OC)cc(OC4CCN(C)CC4(F)F)c23)c1F` (racemic) [Compound 16, (R/S)-5-((3,3-difluoro-1-methylpiperidin-4-yl)oxy)-N-(3-ethynyl-2,4-difluorophenyl)-7-methoxyquinazolin-4-amine], at EGFR, the IC50 is < 10 nM.
For the compound `COc1cc(O[C@H]2CCN(C3COC3)CC2(F)F)c2c(Nc3c(F)ccc4c3OCO4)ncnc2c1` [Compound 45, (S)-5-((3,3-difluoro-1-(oxetane-3-yl)piperidin-4-yl)oxy)-N-(5-fluorobenzo[d] [1,3]dioxolcyclopenten-4-yl)-7-methoxyquinazolin-4-amine], the IC50 on FYN was < 100 nM.
The same measure, in the same setting: to `COc1cc(O[C@@H]2CCN(C)CC2(F)F)c2c(Nc3c(Cl)ccc4c3OCO4)ncnc2c1` [Compound 20, (R)—N-(5-chlorobenzo[d][1,3]dioxolcyclopenten-4-yl)-5-((3,3-difluoro-1-methylpiperidin-4-yl)oxy)-7-methoxyquinazolin-4-amine] belongs < 100 nM.
As for `COc1cc(O[C@@H]2CCN(C)CC2(F)F)c2c(Oc3ccc4[nH]c(C)cc4c3F)ncnc2c1` [Compound 17, (R)-5-((3,3-difluoro-1-methylpiperidin-4-yl)oxy)-4-((4-fluoro-2-methyl-1H-indole-5-yl)oxy)-7-methoxyquinazoline], the IC50 on VEGFR2 was < 10 nM.
Regarding `COc1cc(O[C@H]2CCN(C)CC2(F)F)c2c(Nc3c(F)ccc4c3OCO4)ncnc2c1` [Compound 39, (S)—N-(5-fluorobenzo[d][1,3]dioxolcyclopenten-4-yl)-5-((3,3-difluoro-1-methylpiperidin-4-yl)oxy)-7-deuterated methoxyquinazolin-4-amine], the IC50 on FYN is < 100 nM.
